Earlier results on two compounds are cited in US11034961B2 (priority 2015, dated 2021).

The structures appear in SMILES notation.

The conditions of series [1]: infusion into the scala tympani.
The conditions of series [2]: administered by IV.

In the case of `Cc1ccccc1C(=O)Nc1ccc(C(=O)N2CCCC(N(C)C)c3ccccc32)cc1` (centres unmarked) [OPC-31260], in series [1], the “Meniere's disease symptoms” value is on record as “marked reduction”.

Take `CCN(CC)CC(=O)Nc1c(C)cccc1C` [Lidocaine]: the “sufferers in whom the noise associated with tinnitus is reduced or eliminated” value in series [2] is recorded as 60-80%.
